Test results as given in patent publication US20200246284A1 (Academia Sinica, priority 2015, published 2020).
Where “and” joins values, the source holds several entries; their conditions need not be identical. Equal entries are not always repeated. Where two headings read alike, the source gives them in different places.

How the values were obtained:
[1] = system: Cord Blood CFC (CFU-GM, BFU-E, CFU-C); type: cell-based, human
H520 = type: cell-based, human
H2228 = type: cell-based, human
H1373 = type: cell-based, human
HCC2450 = type: cell-based, human
H1781 = type: cell-based, human
HCC15 = type: cell-based, human
[2] = system: MRC5 fetal lung fibroblast; type: cell-based, human
[3] = system: IMR90 fetal lung myofibroblast; test: Cytotoxicity normal tissue 72 hr; type: cell-based, human
EBC1 = type: cell-based, human
H647 = type: cell-based, human
PC9 = type: cell-based, human
H3255 = type: cell-based, human
H1666 = type: cell-based, human
[4] = system: normal human, murine or primate cell and tissue types; test: Cytotoxicity, panel of normal tissues (MTT, alamar blue); type: cell-based
BMMSC BM mesenchyme = test: Cytotoxicity normal tissue 72 hr; type: cell-based, human
H3122 = type: cell-based, human
[5] = system: nude mice bearing prostate 22Rv/HL2; settings: mouse, in vivo; as to BASO: test concentration or dose not given here; as to EOS: test concentration or dose not given here; as to LYM: test concentration or dose not given here; as to MONO: test concentration or dose not given here; as to NEU: test concentration or dose not given here; as to PLT: test concentration or dose not given here
[6] = system: nude mice bearing prostate 22Rv/HL2 tumor xenografts; settings: mouse, in vivo
HCC827 = type: cell-based, human
HS27 adult BM stroma = type: cell-based, human
H1650 = type: cell-based, human
[7] = system: nude mice bearing prostate 22Rv/HL2; settings: mouse, in vivo; remark: listed apart in the source; as to BASO: test concentration or dose not given here; as to EOS: test concentration or dose not given here; as to LYM: test concentration or dose not given here; as to MONO: test concentration or dose not given here; as to NEU: test concentration or dose not given here; as to PLT: test concentration or dose not given here
[8] = system: BEAS2B SV40 bronchial epithelium; type: cell-based, human
SK-MES-1 = type: cell-based, human
CALU-1 = type: cell-based, human
SK-LU-1 = type: cell-based, human
CALU-6 = type: cell-based, human
HCC364 = type: cell-based, human
H1755 = type: cell-based, human
CALU-3 = type: cell-based, human
A549 = type: cell-based, human
H1395 = type: cell-based, human
PC1 (jap) = type: cell-based, human
H525 = type: cell-based, human
H1975 = type: cell-based, human
[9] = system: 16HBE SV40+ bronchial epithelium; type: cell-based, human
H596 = type: cell-based, human
H1703 = type: cell-based, human
Mino [10] = test: Cytotoxicity mantle cell lymphoma; settings: read-out: cytotoxicity IC50; Mino, mantle cell lymphoma
Procedure: (§1) After 72 hours, the cultures were pulsed with Alamar Blue overnight, and the fluorescent intensity of resulted cultures was measured by a Synergy H1 plate-reader (BioTek Inc).

Toledo = test: Cytotoxicity DLBCL; settings: read-out: cytotoxicity IC50, DLBCL GCB
Procedure: as §1

Granta = test: Combination with BO-1055, MCL (Tables 28, 29); type: cell-based, human; settings: Granta; combo-1 BO-1055 variable, combo-2 partner variable
SUDHL-4 = test: Cytotoxicity DLBCL; settings: read-out: cytotoxicity IC50; SUDHL-4, DLBCL GCB
Procedure: as §1

SUDHL-6 = test: Cytotoxicity DLBCL; settings: read-out: cytotoxicity IC50; SUDHL-6, DLBCL GCB
Procedure: as §1

Z-138 [11] = test: Combination with BO-1055, MCL (Tables 28, 29); type: cell-based, human; settings: Z-138; combo-1 BO-1055 variable, combo-2 partner variable
LY1 = test: Cytotoxicity DLBCL; settings: read-out: cytotoxicity IC50; LY1, DLBCL GCB
Procedure: as §1

Ly8 = test: Cytotoxicity DLBCL; settings: read-out: cytotoxicity IC50; LY8, DLBCL GCB
Procedure: as §1

REC-1 = test: Combination with BO-1055, MCL (Tables 28, 29); type: cell-based, human; settings: REC-1; combo-1 BO-1055 variable, combo-2 partner variable
Mino [12] = test: Combination with BO-1055, MCL (Tables 28, 29); type: cell-based, human; settings: Mino; combo-1 BO-1055 variable, combo-2 partner variable
JEKO-1 = test: Cytotoxicity mantle cell lymphoma
Procedure: as §1

NECB1 = test: Combination with BO-1055, MCL (Tables 28, 29); type: cell-based, human; settings: NECB1; combo-1 BO-1055 variable, combo-2 partner variable
Ly18 = test: Cytotoxicity DLBCL; settings: read-out: cytotoxicity IC50; LY18, DLBCL GCB
Procedure: as §1

[13] = system: spontaneous murine B-cell lymphoma; test: Cytotoxicity, with or without MS5 stromal cells; settings: read-out: cytotoxicity IC50; murine BCL, spontaneous NSG CD19+, no stromal support
DLBCL (GBC) cell lines = test: Combination of BO-1055 with PUH71, TT46, bortezomib, doxorubicin (Table 25); type: cell-based; settings: Homo sapiens, read-out: IC50 single agent
Ly3 (OCI-LY3) = test: Cytotoxicity DLBCL; settings: read-out: cytotoxicity IC50; LY3, DLBCL ABC
Procedure: as §1

Z-138 [14] = test: Cytotoxicity mantle cell lymphoma; settings: read-out: cytotoxicity IC50; Z-138, mantle cell lymphoma
Procedure: as §1

U2932 = test: Cytotoxicity DLBCL; settings: read-out: cytotoxicity IC50; U2932, DLBCL ABC
Procedure: as §1

Karpas-422 = test: Cytotoxicity DLBCL; settings: read-out: cytotoxicity IC50; Karpas-422, DLBCL GCB
Procedure: as §1

HBL1 = test: Cytotoxicity DLBCL; settings: read-out: cytotoxicity IC50; HBL1, DLBCL ABC
Procedure: as §1

SUDHL-5 = test: Cytotoxicity DLBCL; settings: read-out: cytotoxicity IC50; SUDHL-5, DLBCL GCB
NECB-1 = test: Cytotoxicity mantle cell lymphoma; settings: read-out: cytotoxicity IC50; NECB-1, mantle cell lymphoma
Procedure: as §1

Granta-519 = test: Cytotoxicity mantle cell lymphoma; settings: read-out: cytotoxicity IC50; Granta-519, mantle cell lymphoma
Procedure: as §1

**Q.** For `N.N.O=C([O-])C1(C(=O)[O-])CCC1.[Pt+2]` [Carboplatin], which IC50 [1] is on record?
**A.** 1.7 µM

**Q.** What about the IC50 (H520) of the same compound?
**A.** 75.6 µM

**Q.** And the IC50 (H2228)?
**A.** 8.62 µM

**Q.** And the IC50 (H1373)?
**A.** 29.3 µM

**Q.** What about the IC50 (HCC2450) of the same compound?
**A.** 34.5 µM

**Q.** And the IC50 (H1781)?
**A.** 3.99 µM

**Q.** And the IC50 (HCC15)?
**A.** 173 µM

**Q.** What about the IC50 [2] of the same compound?
**A.** 210 µM

**Q.** And the IC50 [3]?
**A.** 1000 µM

**Q.** What about the IC50 (EBC1) of the same compound?
**A.** 168 µM

**Q.** What about the IC50 (H647) of the same compound?
**A.** 25.5 µM

**Q.** What about the IC50 (PC9) of the same compound?
**A.** 32.1 µM

**Q.** What about the IC50 (H3255) of the same compound?
**A.** 24.3 µM

**Q.** And the IC50 (H1666)?
**A.** 90.7 µM

**Q.** And the IC50 [4]?
**A.** ≥ 32.8 µM

**Q.** What about the IC50 (BMMSC BM mesenchyme) of the same compound?
**A.** 32.8 µM

**Q.** And the IC50 (H3122)?
**A.** 109 µM

**Q.** And the BASO [5]?
**A.** 0.03 10^3/μL

**Q.** And the EOS [5]?
**A.** 0.13 10^3/μL

**Q.** What about the LYM [5] of the same compound?
**A.** 0.60 10^3/μL

**Q.** And the MONO [5]?
**A.** 0.07 10^3/μL

**Q.** And the NEU [5]?
**A.** 1.13 10^3/μL

**Q.** And the PLT [5]?
**A.** 369 10^3/μL

**Q.** And the RBC [5]?
**A.** 9.37 10^6/μL

**Q.** And the WBC [5]?
**A.** 1.97 10^3/μL

**Q.** What about the “pathological change in heart, liver, spleen, lung and kidney” value [6] of the same compound?
**A.** no apparent pathological change

**Q.** And the IC50 (HCC827)?
**A.** 138 µM

**Q.** What about the IC50 (HS27 adult BM stroma) of the same compound?
**A.** 35.3 µM

**Q.** What about the IC50 (H1650) of the same compound?
**A.** 69.7 µM

**Q.** What about the ALT [7] of the same compound?
**A.** 64.85 U/L

**Q.** And the AST [7]?
**A.** 119.15 U/L

**Q.** What about the BUN [7] of the same compound?
**A.** 21.17 mg/dL

**Q.** What about the CREA [7] of the same compound?
**A.** 0.31 mg/dL

**Q.** And the UA [7]?
**A.** 1.97 mg/dL

**Q.** What about the IC50 [8] of the same compound?
**A.** 120 µM

**Q.** And the IC50 (SK-MES-1)?
**A.** 160 µM

**Q.** What about the IC50 (CALU-1) of the same compound?
**A.** 96.2 µM

**Q.** What about the IC50 (SK-LU-1) of the same compound?
**A.** 42.4 µM

**Q.** And the IC50 (CALU-6)?
**A.** 14.7 µM

**Q.** What about the IC50 (HCC364) of the same compound?
**A.** 172 µM

**Q.** What about the IC50 (H1755) of the same compound?
**A.** 41.4 µM

**Q.** And the IC50 (CALU-3)?
**A.** 84.5 µM

**Q.** And the IC50 (A549)?
**A.** 41.3 µM

**Q.** And the IC50 (H1395)?
**A.** 17.4 µM

**Q.** And the IC50 (PC1 (jap))?
**A.** 57.4 µM

**Q.** What about the IC50 (H525) of the same compound?
**A.** 72.7 µM

**Q.** What about the IC50 (H1975) of the same compound?
**A.** 60.2 µM

**Q.** What about the IC50 [9] of the same compound?
**A.** 35.5 µM

**Q.** What about the IC50 (H596) of the same compound?
**A.** 34.1 µM

**Q.** What about the IC50 (H1703) of the same compound?
**A.** ≥ 80 µM

**Q.** How did the IC50 (Mino [10]) turn out when `CC(C)NCCCn1c(Sc2cc3c(cc2I)OCO3)nc2c(N)ncnc21` [PUH71] was run?
**A.** 0.26 µM

**Q.** What about the IC50 (Toledo) of the same compound?
**A.** 2.66 µM

**Q.** And the “interaction with BO-1055” value (Granta)?
**A.** dually antagonistic

**Q.** What about the IC50 (SUDHL-4) of the same compound?
**A.** 0.2 µM

**Q.** What about the IC50 (SUDHL-6) of the same compound?
**A.** 0.05 µM

**Q.** And the “interaction with BO-1055” value (Z-138 [11])?
**A.** synergistic with BO-1055 in both combinations

**Q.** What about the IC50 (LY1) of the same compound?
**A.** 0.26 µM and 0.308 µM

**Q.** What about the IC50 (Ly8) of the same compound?
**A.** 0.81 µM

**Q.** What about the “interaction with BO-1055” value (REC-1) of the same compound?
**A.** antagonistic against REC-1 in both combinations

**Q.** What about the “interaction with BO-1055” value (Mino [12]) of the same compound?
**A.** dually synergistic

**Q.** And the IC50 (JEKO-1; JEKO-1, 72 hr (Table 27))?
**A.** 0.31 µM

**Q.** What about the IC50 (JEKO-1; read-out: cytotoxicity IC50, JEKO-1, mantle cell lymphoma) of the same compound?
**A.** 0.26 µM

**Q.** What about the “interaction with BO-1055” value (NECB1) of the same compound?
**A.** synergistic with BO-1055 against NECB1 in combo-1 and antagonistic in combo-2

**Q.** And the IC50 (Ly18)?
**A.** 0.27 µM

**Q.** What about the IC50 [13] of the same compound?
**A.** 0.24 µM

**Q.** What about the IC50 (DLBCL (GBC) cell lines; Farage) of the same compound?
**A.** 0.785 µM

**Q.** What about the IC50 (DLBCL (GBC) cell lines; KARPAS-422, KARPAS-422) of the same compound?
**A.** 1.52 µM

**Q.** And the IC50 (DLBCL (GBC) cell lines; OCI-LY19, OCI-LY19)?
**A.** 0.221 µM

**Q.** What about the IC50 (DLBCL (GBC) cell lines; OCI-Ly8, OCI-LY8) of the same compound?
**A.** 0.814 µM

**Q.** What about the IC50 (DLBCL (GBC) cell lines; OCI-Ly18, OCI-LY18) of the same compound?
**A.** 0.274 µM

**Q.** What about the IC50 (DLBCL (GBC) cell lines; OCY-LY1) of the same compound?
**A.** 0.208 µM

**Q.** What about the IC50 (DLBCL (GBC) cell lines; OCY-LY7) of the same compound?
**A.** 0.391 µM

**Q.** And the IC50 (DLBCL (GBC) cell lines; PFEIFER)?
**A.** 0.335 µM

**Q.** What about the IC50 (DLBCL (GBC) cell lines; SU-DHL-4, SUDHL4) of the same compound?
**A.** 0.379 µM

**Q.** And the IC50 (DLBCL (GBC) cell lines; SU-DHL-5, SUDHL5)?
**A.** 0.336 µM

**Q.** What about the IC50 (DLBCL (GBC) cell lines; SU-DHL-6, SUDHL6) of the same compound?
**A.** 0.672 µM

**Q.** What about the IC50 (DLBCL (GBC) cell lines; Toledo) of the same compound?
**A.** 10.9 µM

**Q.** And the IC50 (Ly3 (OCI-LY3))?
**A.** 2.78 µM

**Q.** What about the IC50 (Z-138 [14]) of the same compound?
**A.** 0.06 µM

**Q.** What about the IC50 (U2932) of the same compound?
**A.** 0.49 µM

**Q.** What about the IC50 (Karpas-422) of the same compound?
**A.** 0.45 µM

**Q.** And the IC50 (HBL1)?
**A.** 1.67 µM

**Q.** What about the IC50 (SUDHL-5) of the same compound?
**A.** 0.41 µM

**Q.** What about the IC50 (NECB-1) of the same compound?
**A.** 1.66 µM

**Q.** What about the IC50 (Granta-519) of the same compound?
**A.** 1.22 µM
